# In patent publication US4026888A, “Certain derivatives of particular 3-thiolated cephalosporins” (priority 1976, dated 1977):
# Where two headings read alike, the source gives them in different places.
# Experiments:
# [1] = Paper chromatography of rat urine for antibiotically active metabolites; assay type: in vivo; conditions: IM; rat urine 0-2 and 2-4 hours
# Procedure: Paper chromatograms were run on rat urine collected between 0 and 2 and between 2 and 4 hours following IM administration of BL-S1055 and 640, for the detection of antibiotically active metabolites using descending chromatography with system No. 9 (butyl acetate:n-butanol:glacial acetic acid:H2 O= 80:15:40:24).
# [2] = tested on: S. aureus BX1633 A9606; test: Antibiotic activity in nutrient broth (MIC); assay type: cell-based; conditions: Staphylococcus aureus, derivatives adjusted for BL-S640 content, read-out: MIC
# From the text: (§1) Antibiotic Activity In Nutrient Broth
# (§2) ** Dilution of overnight broth culture.
# (§3) Antibiotic Spectrum Nutrient Broth
# (§4) Antibiotic Spectrum in Nutrient Broth
# [3] = tested on: Ps. aeruginosa A9843A; test: Antibiotic activity in nutrient broth (MIC); assay type: cell-based; conditions: Pseudomonas aeruginosa
# From the text: as §1, §2, §3, §4
# [4] = tested on: Sal. enteritidis A9531; test: Antibiotic activity in nutrient broth (MIC); assay type: cell-based; conditions: Salmonella enterica, ENTERITIDIS, inoculum 10^-4; derivatives adjusted for BL-S640 content; read-out: MIC
# From the text: as §1, §2, §3, §4
# [5] = tested on: E. coli A9675; test: Antibiotic activity in nutrient broth (MIC); assay type: cell-based; conditions: Escherichia coli, A9675, inoculum 10^-4; derivatives adjusted for BL-S640 content; read-out: MIC
# From the text: as §1, §2, §3, §4
# [6] = tested on: Ent. cloacae A9659; test: Antibiotic activity in nutrient broth (MIC); assay type: cell-based; conditions: Enterobacter cloacae, A9659, inoculum 10^-4; derivatives adjusted for BL-S640 content; read-out: MIC
# From the text: as §1, §2, §3, §4
# [7] = tested on: Pr. mirabilis A9900; test: Antibiotic activity in nutrient broth (MIC); assay type: cell-based; conditions: Proteus mirabilis, inoculum 10^-4, derivatives adjusted for BL-S640 content
# From the text: as §1, §2, §3, §4
# [8] = tested on: S. aureus Smith A9537; test: Antibiotic activity in nutrient broth (MIC); assay type: cell-based; conditions: Staphylococcus aureus, SMITHA9537, inoculum 10^-4, derivatives adjusted for BL-S640 content, read-out: MIC
# From the text: as §1, §2, §3, §4
# [9] = tested on: K. pneumoniae A15130; test: Antibiotic activity in nutrient broth (MIC); assay type: cell-based; conditions: Klebsiella pneumoniae, A15130, inoculum 10^-4; derivatives adjusted for BL-S640 content; read-out: MIC
# From the text: as §1, §2, §3, §4
# [10] = tested on: K. pneumoniae A9977; test: Antibiotic activity in nutrient broth (MIC); assay type: cell-based; conditions: Klebsiella pneumoniae, inoculum 10^-4, derivatives adjusted for BL-S640 content, read-out: MIC
# From the text: as §1, §2, §3, §4
# [11] = tested on: Ent. cloacae A9657; test: Antibiotic activity in nutrient broth (MIC); assay type: cell-based; conditions: Enterobacter cloacae, A9657, inoculum 10^-4; derivatives adjusted for BL-S640 content; read-out: MIC
# From the text: as §1, §2, §3, §4
# [12] = tested on: E. coli Juhl A15119; test: Antibiotic activity in nutrient broth (MIC); assay type: cell-based; conditions: Escherichia coli, JUHLA15119, inoculum 10^-4; derivatives adjusted for BL-S640 content; read-out: MIC
# From the text: as §1, §2, §3, §4
# [13] = tested on: Ser. marcescens A20019; test: Antibiotic activity in nutrient broth (MIC); assay type: cell-based; conditions: Serratia marcescens, A20019, inoculum 10^-4; derivatives adjusted for BL-S640 content
# From the text: as §1, §2, §3, §4
# [14] = tested on: Pr. morganii A15153; test: Antibiotic activity in nutrient broth (MIC); assay type: cell-based; conditions: Morganella morganii, A15153, inoculum 10^-4; derivatives adjusted for BL-S640 content; read-out: MIC
# From the text: as §1, §2, §3, §4
# [15] = tested on: Ent. cloacae A9656; test: Antibiotic activity in nutrient broth (MIC); assay type: cell-based; conditions: Enterobacter cloacae, A9656, inoculum 10^-4; derivatives adjusted for BL-S640 content
# From the text: as §1, §2, §3, §4
# [16] = tested on: S. aureus Meth-Res A15097; test: Antibiotic activity in nutrient broth (MIC); assay type: cell-based; conditions: Staphylococcus aureus, inoculum 10^-3; Meth-Res; derivatives adjusted for BL-S640 content; read-out: MIC
# From the text: as §1, §2, §3, §4
# [17] = tested on: P. mirabilis A9900; test: Oral PD50 in mice; assay type: in vivo; conditions: Proteus mirabilis, A9900, po, 3.5 h, oral; mice treated at 1 and 3.5 hours post-challenge; read-out: PD50
# [18] = tested on: P. mirabilis A9900; test: IM PD50 in mice; assay type: in vivo; conditions: Proteus mirabilis
# From the text: Comparative IM PD50 Values of
# BL-S640 Derivatives in Mice
# [19] = 0 min
# Procedure: Paper strip bioautographs were run in the following manner. Samples were dissolved at a concentration of 500 γ/ml. in 0.1M pH 7 phosphate buffer and pH 7 pooled human serum at 500 γ/ml. A 10 μl sample of BL-S640 and the above product were spotted on a 1/2 inch strip of What. No. 1 paper and developed at 27° for 16 hours in a butyl acetate 80, n-butanol 15, acetic acid 40, and water 24 system. The strips were air-dried, and placed on an agar plate seeded with B. subtilis A.T.C.C.
# Samples were chromatographed on a μ Bondapak C18 (Waters Associates) column using a 0.01M sodium acetate pH 4/-methanol 8/2 mobile phase at a flow rate of 0.52 ml./min. Detection was by UV at 354 μm. Samples were dissolved at a concentration of 1 mg./ml. in the mobile phase, 2 μ were injected and BL-S640 was eluted at 18 min. and the aldehyde at 6 min. The quantitation of BL-S640 and 5-formylfuransulfonic acid were made using p-toluene-sulfonic acid as an internal standard.
# [20] = Urinary recovery after IM administration to rats; assay type: in vivo; conditions: rat, urine, 50 mg/kg, IM 50 mg./kg., read-out: Urinary Recovery, Percentage of Administered Dose Recovered
# Procedure: Urinary Recovery After IM
# Administration of 50 and 10 mg./kg. to Rats
# The compounds were prepared in 0.01% phosphate buffer. BL-S640 was used as
# Urinary Recovery after IM
# Administration of 50 mg./kg. to Rats
# The compounds were prepared in 0.01% phosphate buffer.
# [21] = Mouse blood levels after oral administration; assay type: in vivo; conditions: mouse, blood, po, 100 mg/kg, Example 3, PO 100 mg./kg., Tween-CMC, average of two experiments, read-out: Blood Levels
# Procedure: Mouse Blood Levels After Oral
# Administration Of 100 mg./kg. Body Weight
# The compounds were prepared in
# Tween - carboxymethylcellulose
# and 8 mice were used for each
# Mouse Blood Levels After PO
# Administration of 100 mg./kg. Body Weight
# The compounds were prepared in Tween-CMC. BL-S640
# The compounds were prepared in Tween-CMC. Values are the average of two
# [22] = tested on: Str. pyogenes A9604; test: Antibiotic activity in nutrient broth (MIC); assay type: cell-based; conditions: Streptococcus pyogenes, A9604, inoculum 10^-3; 45% AAB + 5% serum + 50% broth; derivatives adjusted for BL-S640 content; read-out: MIC
# From the text: as §1
# (§5) * 45% AAB+ 5% serum+ 50% broth listed above.
# as §2, §3
# (§6) * 45% AAB + 5% serum + 50% broth
# as §4
# (§7) *45% AAB + 5% serum + 50% broth listed above.
# [23] = tested on: Str. pneumoniae A9585; test: Antibiotic activity in nutrient broth (MIC); assay type: cell-based; conditions: Streptococcus pneumoniae, A9585, inoculum 10^-3 dilution of overnight broth culture; 45% AAB + 5% serum + 50% broth; derivatives adjusted for BL-S640 content
# From the text: as §1, §5, §2, §3, §6, §4, §7
structure (smiles),measurement,setting,value
O=C(O)C1=C(CSc2cnn[nH]2)CS[C@@H]2[C@H](N3C(=O)[C@@H](c4ccc(O)cc4)NC3c3ccccc3S(=O)(=O)O)C(=O)N12 (stereo partly drawn) [BL-S1055],Hydrolysis to the parent compound (BL-S640),[1],complete hydrolysis
same,MIC,"[2]; BX1633A9606, inoculum 10^-2",2 µg/mL
same,MIC,"[2]; BX1633A9606, inoculum 10^-3",0.5 µg/mL
same,MIC,[3],> 125 µg/mL
same,MIC,[4],0.35 µg/mL
same,MIC,[5],4 µg/mL
same,MIC,[6],63 µg/mL
same,MIC,[7],0.5 µg/mL
same,MIC,[8]; + 50% serum,2 µg/mL
same,MIC,[8]; nutrient broth,0.13 µg/mL
same,MIC,[9],1 µg/mL
same,MIC,[10],0.5 µg/mL
same,MIC,[11],0.5 µg/mL
same,MIC,[12],1 µg/mL
same,MIC,[13],125 µg/mL
same,MIC,[14],32 µg/mL
same,MIC,[15],125 µg/mL
same,MIC,[16],4 µg/mL
same,ED50,[17],8.2 mg/kg
same,ED50,[18],1.6 mg/kg
same,% Free BL-S640 by liquid chromatography,[19],64.0%
same,dose excreted at 6 h,[20]; 0-6 hr,36.6%
same,dose excreted at 24 h,[20]; 0-24 hr,39%
same,dose excreted at 24 h,[20]; 6-24 hr,2.4%
same,concentration at 0.5 h,[21]; 0.5 hr,38200 ng/mL
same,concentration at 1 h,[21]; 1 hr,35700 ng/mL
same,concentration at 2 h,[21]; 2 hr,22000 ng/mL
same,concentration at 3.5 h,[21]; 3.5 hr,11300 ng/mL
same,MIC,[22],0.016 µg/mL
same,MIC,[23],0.06 µg/mL
